# According to patent publication US20050033056A1, “Hydroxylated indole derivatives and uses thereof” (priority 2001, published 2005):
# Columns and labels:
# CYP2C19 = CYP2C19 (Homo sapiens, UniProt P33261); assay: CYP inhibition in HLM: S-mephenytoin 4'-hydroxylation; format: in vitro ADME; design: tissue Gentest Corp. (Woburn, Mass.); host or cells: pooled human liver microsomes; details: in the presence of Compound 1, concentration-dependent
# Procedure: The incubations were carried out in test tubes (12.0×75 mm). The incubation mixtures (250 μL) contained 0.5 mg of HLM protein, 50 (CYP1A2 and CYP2E1) or 25 (CYP2C9, CYP2C19, CYP2D6 and CYP3A4) pmol of recombinant human CYPs, Compound 1 (10 or 50 μM), probe substrate (R—, S-warfarin, chlorzoxazone, S-mephenyloin, or bufuralol) at different concentrations, and 0.5 mg of NADPH in 50 mM Tris buffer containing 15 mM MgCl2 (pH 7.4). Compound 1 was added to the reaction mixture 5 minutes prior to the addition of the probe substrate. […]
# The quantification was based on the calibration curves, and the quality control (QC) samples were applied to ensure the quality of the experiments. […]
# 4. […] MRM was applied for the quantification. […]
# Data were acquired and analyzed by ChemStation (Version 6.03, Hewlett Packard, Waldbronn, Germany) for 6-, 7-, and 10-hydroxywarfarin and 6-hydroxychlorzoxazone, and MacQuan (Version 1.6, PE Biosystem, Foster City, Calif.) for 1′-hydroxybufuralol and 4′-hydroxymephenytoin. Quantification was based on peak area ratios of metabolites over the respective IS against the respective concentration of the metabolites. […] The metabolic rates were determined using Excel (Microsoft Office 97, Microsoft Corporation, Redmond, Wash.) or SigmaPlot (Version 6.00, SPSS Inc. Chicago, Ill.). […]
# CYP2C19/2C8/2C9 = assay: CYP induction in primary human hepatocytes, Western immunoblotting: CYP2C19/2C8/2C9; format: cell-based; details: 10 or 50 μM for 72 hours; hepatocytes from three donors
# Procedure: Upon receiving a primary culture of human hepatocytes in 6-well plates, the culture medium containing streptomycin/penicillin was refreshed (2 ml/well). […] The culture medium and testing compounds were replenished every 24 hours.
# At the end of the treatment, the cells were harvested into 1 mL of phosphate-buffered saline (PBS) after washing twice. The cells were precipitated by centrifugation, and were resuspended in PBS (approximately 50 μL).
# The membrane was blocked by 5% non-fat dried milk (NFDM) blotting buffer (PBS containing 0.05% Tween 20) at 4° C. overnight. […] The membrane was rinsed six times (10 minutes each time) with the blotting buffer, and exposed to 1:10,000 diluted secondary antibodies labeled with horseradish peroxidase for 1 hour at room temperature. After being extensively rinsed with the blotting buffer, the membrane was exposed to the substrate of peroxidase (enhanced chemiluminescence reagent). CYP proteins were detected by […] using an X-ray developer.
# CYP1A1/2 = assay: CYP induction in primary human hepatocytes, Western immunoblotting: CYP1A1/2; format: cell-based; details: 10 or 50 μM for 72 hours; hepatocytes from three donors
# Procedure: Upon receiving a primary culture of human hepatocytes in 6-well plates, the culture medium containing streptomycin/penicillin was refreshed (2 ml/well). […] Compound 1 stock solution was added to the culture medium at a 1:400 ratio (v/v). The culture medium and testing compounds were replenished every 24 hours.
# At the end of the treatment, the cells were harvested into 1 mL of phosphate-buffered saline (PBS) after washing twice. The cells were precipitated by centrifugation, and were resuspended in PBS (approximately 50 μL). The sample preparation, after mixing with […] of Laemmli buffer (62.5 mM Tris-HCl containing 2% SDS, 25% glycerol, and 0.01% bromophenol, pH 6.8) and being rocked for 2-4 hours, was mixed with 10 μL of 2-mercaptoethanol, and heated at 90° C. for 10 minutes before electrophoresis.
# Proteins were resolved in a 12% SDS-PAGE gel using a mini gel apparatus at a constant voltage ([…]) for 70-80 minutes, and transferred onto a polyvinylidene difluoride (PVDF) membrane using a membrane-transferring unit at a constant voltage ([…]) for 60 minutes. The membrane was blocked by 5% non-fat dried milk (NFDM) blotting buffer (PBS containing 0.05% Tween 20) at 4° C. overnight. […] CYP proteins were detected by […] using an X-ray developer.
# 5-HT2 receptor = details: background statement, see WO 98/43956 and EP 0 976 732 A1; cited from earlier work
# Chain of CYP2C19 (P33261 whole entry): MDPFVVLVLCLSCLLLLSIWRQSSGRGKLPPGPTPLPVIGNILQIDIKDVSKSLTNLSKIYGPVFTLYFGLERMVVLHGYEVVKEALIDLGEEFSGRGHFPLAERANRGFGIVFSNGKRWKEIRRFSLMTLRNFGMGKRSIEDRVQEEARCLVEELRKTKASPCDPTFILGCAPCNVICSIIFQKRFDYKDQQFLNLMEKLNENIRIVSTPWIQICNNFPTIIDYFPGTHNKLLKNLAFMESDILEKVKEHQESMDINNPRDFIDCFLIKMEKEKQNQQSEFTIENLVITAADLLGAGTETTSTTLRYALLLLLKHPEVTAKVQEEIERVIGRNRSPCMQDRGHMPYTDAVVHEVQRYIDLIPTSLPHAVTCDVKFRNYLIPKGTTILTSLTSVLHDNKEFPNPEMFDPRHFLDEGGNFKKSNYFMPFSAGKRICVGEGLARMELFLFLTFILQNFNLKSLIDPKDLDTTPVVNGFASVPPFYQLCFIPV
smiles,measurement,setting,value
"CNC(=O)Cc1ccc2ccn(C3CCN(CCc4ccccc4F)CC3)c2c1 [Compound 1, N-methyl-[1-[1-(2-fluorophenethyl)piperidine-4-yl]-1H-indol-6-yl] acetamide]",effect on CYP2C19-mediated S-mephenyloin 4'-hydroxylation activity (in words),CYP2C19,significantly reduced
same,expression of CYP2C19/2C8/2C9 (Western immunoblotting),CYP2C19/2C8/2C9,did not increase
same,expression of CYP1A1/2 (Western immunoblotting),CYP1A1/2,did not increase
same,"IC50, binding to 5-HT2 receptor",5-HT2 receptor,low nanomolar
